Laboratory results taken from PubChem BioAssay (NCI).
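Step 1: Grow cells in 96-well plates. Step 2: Expose to compound for 48 hours at 5 concentrations. Step 3: Interpolate endpoints linearly; if unreached, use highest concentration. TGI marks complete inhibition of growth.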

Experiments:
Assay in all cases: DTP human tumour cell line panel, 48 h
SN12C renal = test system: SN12C renal
TK-10 renal = test system: TK-10 renal
786-0 renal = test system: 786-0 renal
MALME-3M melanoma = test system: MALME-3M melanoma
SK-MEL-5 melanoma = test system: SK-MEL-5 melanoma
OVCAR-3 ovarian = test system: OVCAR-3 ovarian
MOLT-4 leukemia = test system: MOLT-4 leukemia
SF-295 CNS = test system: SF-295 CNS
PC-3 prostate = test system: PC-3 prostate
DU-145 prostate = test system: DU-145 prostate
M14 melanoma = test system: M14 melanoma
T-47D breast = test system: T-47D breast
HT29 colon = test system: HT29 colon
SNB-75 CNS = test system: SNB-75 CNS
LOX IMVI melanoma = test system: LOX IMVI melanoma
UO-31 renal = test system: UO-31 renal
HS 578T breast = test system: HS 578T breast
UACC-257 melanoma = test system: UACC-257 melanoma
MDA-MB-231 breast = test system: MDA-MB-231 breast
HCT-116 colon = test system: HCT-116 colon
IGROV1 ovarian = test system: IGROV1 ovarian
NCI-H226 lung = test system: NCI-H226 lung
EKVX NSCLC = test system: EKVX NSCLC
HCT-15 colon = test system: HCT-15 colon
OVCAR-8 ovarian = test system: OVCAR-8 ovarian
HL-60(TB) leukemia = test system: HL-60(TB) leukemia
SK-OV-3 ovarian = test system: SK-OV-3 ovarian
KM12 colon = test system: KM12 colon
CCRF-CEM leukemia = test system: CCRF-CEM leukemia
OVCAR-5 ovarian = test system: OVCAR-5 ovarian
SF-268 CNS = test system: SF-268 CNS
COLO 205 colon = test system: COLO 205 colon
BT-549 breast = test system: BT-549 breast
SF-539 CNS = test system: SF-539 CNS
RXF 393 renal = test system: RXF 393 renal
NCI-H522 lung = test system: NCI-H522 lung
MDA-N = test system: MDA-N
HOP-62 NSCLC = test system: HOP-62 NSCLC
ACHN renal = test system: ACHN renal
A549 NSCLC = test system: A549 NSCLC
OVCAR-4 ovarian = test system: OVCAR-4 ovarian
SNB-19 CNS = test system: SNB-19 CNS
A498 renal = test system: A498 renal
SK-MEL-28 melanoma = test system: SK-MEL-28 melanoma
UACC-62 melanoma = test system: UACC-62 melanoma
MDA-MB-435 = test system: MDA-MB-435
MCF7 breast = test system: MCF7 breast
NCI-H23 lung = test system: NCI-H23 lung
K-562 leukemia = test system: K-562 leukemia
U251 CNS = test system: U251 CNS
RPMI-8226 leukemia = test system: RPMI-8226 leukemia
SR leukemia = test system: SR leukemia
SW-620 colon = test system: SW-620 colon
CAKI-1 renal = test system: CAKI-1 renal
NCI/ADR-RES ovarian = test system: NCI/ADR-RES ovarian
SK-MEL-2 melanoma = test system: SK-MEL-2 melanoma
NCI-H460 lung = test system: NCI-H460 lung
HCC-2998 colon = test system: HCC-2998 colon
HOP-92 NSCLC = test system: HOP-92 NSCLC

O=C1C=CC(=O)c2c(O)c(N3CCC[C@H]3CO)c(Cl)c(O)c21
TGI (SN12C renal): 3.2 µM
TGI (TK-10 renal): 5.57 µM
TGI (786-0 renal): 3.64 µM
TGI (MALME-3M melanoma): 3.21 µM
TGI (SK-MEL-5 melanoma): 3.11 µM
TGI (OVCAR-3 ovarian): > 7.45 µM
TGI (MOLT-4 leukemia): 1.95 µM
TGI (SF-295 CNS): > 10 µM
TGI (PC-3 prostate): > 10 µM
TGI (DU-145 prostate): > 6.32 µM
TGI (M14 melanoma): 3.61 µM
TGI (T-47D breast): 4.57 µM
TGI (HT29 colon): > 10 µM
TGI (SNB-75 CNS): > 10 µM
TGI (LOX IMVI melanoma): 4.34 µM
TGI (UO-31 renal): > 5.84 µM
TGI (HS 578T breast): > 8.27 µM
TGI (UACC-257 melanoma): 1.92 µM
TGI (MDA-MB-231 breast): 6.48 µM
TGI (HCT-116 colon): 3.3 µM
TGI (IGROV1 ovarian): > 7.96 µM
TGI (NCI-H226 lung): > 10 µM
TGI (EKVX NSCLC): > 10 µM
TGI (HCT-15 colon): 4.15 µM
TGI (OVCAR-8 ovarian): > 6.11 µM
TGI (HL-60(TB) leukemia): 0.249 µM
TGI (SK-OV-3 ovarian): > 10 µM
TGI (KM12 colon): > 6.06 µM
TGI (CCRF-CEM leukemia): 0.757 µM
TGI (OVCAR-5 ovarian): > 10 µM
TGI (SF-268 CNS): > 10 µM
TGI (COLO 205 colon): 3.22 µM
TGI (BT-549 breast): > 10 µM
TGI (SF-539 CNS): > 10 µM
TGI (RXF 393 renal): 3.46 µM
TGI (NCI-H522 lung): 0.939 µM
TGI (MDA-N): 3.51 µM
TGI (HOP-62 NSCLC): > 10 µM
TGI (ACHN renal): 4.53 µM
TGI (A549 NSCLC): > 10 µM
TGI (OVCAR-4 ovarian): 3.93 µM
TGI (SNB-19 CNS): > 10 µM
TGI (A498 renal): > 10 µM
TGI (SK-MEL-28 melanoma): 2.23 µM
TGI (UACC-62 melanoma): 4.88 µM
TGI (MDA-MB-435): 3.45 µM
TGI (MCF7 breast): 3.66 µM
TGI (NCI-H23 lung): 4.61 µM
TGI (K-562 leukemia): 1.87 µM
TGI (U251 CNS): > 10 µM
TGI (RPMI-8226 leukemia): 1.09 µM
TGI (SR leukemia): 1.4 µM
TGI (SW-620 colon): 3.51 µM
TGI (CAKI-1 renal): 3.57 µM
TGI (NCI/ADR-RES ovarian): 4.06 µM
TGI (SK-MEL-2 melanoma): 5.53 µM
TGI (NCI-H460 lung): > 10 µM
TGI (HCC-2998 colon): > 6.61 µM
TGI (HOP-92 NSCLC): 3.13 µM

COc1cc(C(=O)Oc2ccc3c(c2)OCO3)cc(OC)c1OC
TGI (SN12C renal): > 100 µM
TGI (TK-10 renal): > 100 µM
TGI (786-0 renal): > 100 µM
TGI (MALME-3M melanoma): > 100 µM
TGI (SK-MEL-5 melanoma): > 100 µM
TGI (OVCAR-3 ovarian): > 100 µM
TGI (MOLT-4 leukemia): > 100 µM
TGI (SF-295 CNS): > 100 µM
TGI (PC-3 prostate): > 100 µM
TGI (DU-145 prostate): > 100 µM
TGI (M14 melanoma): > 100 µM
TGI (T-47D breast): > 100 µM
TGI (HT29 colon): > 100 µM
TGI (SNB-75 CNS): > 100 µM
TGI (LOX IMVI melanoma): > 100 µM
TGI (UO-31 renal): > 100 µM
TGI (HS 578T breast): > 100 µM
TGI (UACC-257 melanoma): > 100 µM
TGI (MDA-MB-231 breast): > 100 µM
TGI (IGROV1 ovarian): > 100 µM
TGI (NCI-H226 lung): > 100 µM
TGI (HCT-15 colon): > 100 µM
TGI (OVCAR-8 ovarian): > 100 µM
TGI (HL-60(TB) leukemia): > 100 µM
TGI (SK-OV-3 ovarian): > 100 µM
TGI (KM12 colon): > 100 µM
TGI (OVCAR-5 ovarian): > 100 µM
TGI (SF-268 CNS): > 100 µM
TGI (COLO 205 colon): > 100 µM
TGI (BT-549 breast): > 100 µM
TGI (SF-539 CNS): > 100 µM
TGI (RXF 393 renal): > 100 µM
TGI (NCI-H522 lung): > 100 µM
TGI (MDA-N): > 100 µM
TGI (HOP-62 NSCLC): > 100 µM
TGI (ACHN renal): > 100 µM
TGI (A549 NSCLC): > 100 µM
TGI (OVCAR-4 ovarian): > 100 µM
TGI (SNB-19 CNS): > 100 µM
TGI (A498 renal): > 100 µM
TGI (SK-MEL-28 melanoma): > 100 µM
TGI (UACC-62 melanoma): > 100 µM
TGI (MDA-MB-435): > 100 µM
TGI (MCF7 breast): > 100 µM
TGI (NCI-H23 lung): > 100 µM
TGI (U251 CNS): > 100 µM
TGI (RPMI-8226 leukemia): > 100 µM
TGI (SR leukemia): > 100 µM
TGI (SW-620 colon): > 100 µM
TGI (CAKI-1 renal): > 100 µM
TGI (NCI/ADR-RES ovarian): > 100 µM
TGI (SK-MEL-2 melanoma): > 100 µM
TGI (NCI-H460 lung): > 100 µM
TGI (HCC-2998 colon): > 100 µM
TGI (HOP-92 NSCLC): > 100 µM
